Results taken from PubChem BioAssay AID1918956 (Molecular Pharmacology Branch, DTP, NCI, 2023).

Tested on: OVCAR-5 complex spheroids, viability
Experiment: Anticancer human tumor OVCAR-5 cell line growth inhibition;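 also: spheroids exposed to agents for seven days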;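 as to viability, T/C: 100% = DMSO vehicle control wells viability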
Conditions: for IC50: curve of first compound; for viability, T/C: stronger effect = lower value
Method in brief: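 Drug combinations with the LSD1 inhibitor iadademstat tested on tumor cells co-cultured as spheroids with endothelial cells and mesenchymal stem cells. Concentrations descended in half-log increments from clinical Cmax or 10 microM.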

[1] = second compound 0.1 µM, first compound 0.0316 µM
[2] = second compound 0.1 µM, first compound 0.1 µM
[3] = second compound 0.1 µM, first compound 0.316 µM
[4] = second compound 0.1 µM, first compound 1 µM
[5] = second compound 0.316 µM, first compound 0.0316 µM
[6] = second compound 0.316 µM, first compound 0.1 µM
[7] = second compound 0.316 µM, first compound 0.316 µM
[8] = second compound 0.316 µM, first compound 1 µM
[9] = second compound 1 µM, first compound 0.0316 µM
[10] = second compound 1 µM, first compound 0.1 µM
[11] = second compound 1 µM, first compound 0.316 µM
[12] = second compound 1 µM, first compound 1 µM
[13] = second compound 3.16 µM, first compound 0.0316 µM
[14] = second compound 3.16 µM, first compound 0.1 µM
[15] = second compound 3.16 µM, first compound 0.316 µM
[16] = second compound 3.16 µM, first compound 1 µM
[17] = second compound 10 µM, first compound 0.0316 µM
[18] = second compound 10 µM, first compound 0.1 µM
[19] = second compound 10 µM, first compound 0.316 µM
[20] = second compound 10 µM, first compound 1 µM
[21] = second compound 0.1 µM, first compound 3.16 µM
[22] = second compound 0.1 µM, first compound 10 µM
[23] = second compound 0.316 µM, first compound 3.16 µM
[24] = second compound 0.316 µM, first compound 10 µM
[25] = second compound 1 µM, first compound 3.16 µM
[26] = second compound 1 µM, first compound 10 µM
[27] = second compound 3.16 µM, first compound 3.16 µM
[28] = second compound 3.16 µM, first compound 10 µM
[29] = second compound 10 µM, first compound 3.16 µM
[30] = second compound 10 µM, first compound 10 µM

| Compound | IC50 (second compound 0.1 µM) [nM] | IC50 (second compound 0.316 µM) [nM] | IC50 (second compound 1 µM) [nM] | IC50 (second compound 3.16 µM) [nM] | IC50 (second compound 10 µM) [nM] | viability, T/C [1] [%] | viability, T/C [2] [%] | viability, T/C [3] [%] | viability, T/C [4] [%] | viability, T/C [5] [%] | viability, T/C [6] [%] | viability, T/C [7] [%] | viability, T/C [8] [%] | viability, T/C [9] [%] | viability, T/C [10] [%] | viability, T/C [11] [%] | viability, T/C [12] [%] | viability, T/C [13] [%] | viability, T/C [14] [%] | viability, T/C [15] [%] | also measured |
| --- | --- | --- | --- | --- | --- | --- | --- | --- | --- | --- | --- | --- | --- | --- | --- | --- | --- | --- | --- | --- | --- |
| O=C(C=Cn1cnc(-c2cc(C(F)(F)F)cc(C(F)(F)F)c2)n1)NNc1cnccn1 + NC1CCC(NC2CC2c2ccccc2)CC1 | 235 | 215 | > 1000 | 705 | 312 | 67.2 | 55 | 50.3 | 44.9 | 69.6 | 51 | 49.6 | 45.7 | 68.8 | 59.4 | 54.5 | 50.3 | 74.4 | 60 | 57.2 | viability, T/C (second compound 0.1 µM, first compound 0.00316 µM): 97.6%; viability, T/C (second compound 0.1 µM, first compound 0.01 µM): 88.2%; viability, T/C (second compound 0.316 µM, first compound 0.00316 µM): 104%; viability, T/C (second compound 0.316 µM, first compound 0.01 µM): 85.8%; viability, T/C (second compound 1 µM, first compound 0.00316 µM): 88.4%; viability, T/C (second compound 1 µM, first compound 0.01 µM): 84.1%; viability, T/C (second compound 3.16 µM, first compound 0.00316 µM): 97.9%; viability, T/C (second compound 3.16 µM, first compound 0.01 µM): 88.1%; viability, T/C [16]: 46.9%; viability, T/C (second compound 10 µM, first compound 0.00316 µM): 83.6%; viability, T/C (second compound 10 µM, first compound 0.01 µM): 84.7%; viability, T/C [17]: 70.6%; viability, T/C [18]: 59.8%; viability, T/C [19]: 50%; viability, T/C [20]: 46.3% |
| O=C(c1cc(Cc2n[nH]c(=O)c3ccccc23)ccc1F)N1CCN(C(=O)C2CC2)CC1 + NC1CCC(NC2CC2c2ccccc2)CC1 | > 10000 | > 10000 | > 10000 | > 10000 | > 10000 | 110 | 116 | 104 | 102 | 101 | 105 | 105 | 101 | 103 | 103 | 106 | 88 | 95.6 | 101 | 93 | viability, T/C [21]: 92.9%; viability, T/C [22]: 90.5%; viability, T/C [23]: 98.2%; viability, T/C [24]: 89.7%; viability, T/C [25]: 95.3%; viability, T/C [26]: 82%; viability, T/C [16]: 100%; viability, T/C [27]: 88.5%; viability, T/C [28]: 74.2%; viability, T/C [17]: 92.4%; viability, T/C [18]: 97%; viability, T/C [19]: 96.3%; viability, T/C [20]: 83.2%; viability, T/C [29]: 79%; viability, T/C [30]: 61.1% |
| CC1COCCN1c1cc(C2(S(C)(=N)=O)CC2)nc(-c2ccnc3[nH]ccc23)n1 (stereo not given) + NC1CC1c1ccc(-c2cccc(O)c2)cc1 | 858 | 862 | 792 | 663 | 697 | 80.6 | 78.3 | 72.8 | 45.9 | 89.2 | 95.6 | 80.6 | 44.9 | 71.4 | 75.4 | 74.2 | 44 | 88.8 | 77.6 | 62.1 | viability, T/C [21]: 32%; viability, T/C [22]: 26.7%; viability, T/C [23]: 33%; viability, T/C [24]: 25.6%; viability, T/C [25]: 29.9%; viability, T/C [26]: 25%; viability, T/C [16]: 42.9%; viability, T/C [27]: 32%; viability, T/C [28]: 24.8%; viability, T/C [17]: 76.9%; viability, T/C [18]: 78.6%; viability, T/C [19]: 65.7%; viability, T/C [20]: 42.3%; viability, T/C [29]: 32.3%; viability, T/C [30]: 27% |
| O=C(c1cc(Cc2n[nH]c(=O)c3ccccc23)ccc1F)N1CCN(C(=O)C2CC2)CC1 + NC1CC1c1ccc(-c2cccc(O)c2)cc1 | > 10000 | > 10000 | > 10000 | > 10000 | > 10000 | 97.6 | 112 | 102 | 88 | 114 | 104 | 99.4 | 93.7 | 94.9 | 105 | 93.7 | 81.2 | 97.9 | 86.9 | 96.9 | viability, T/C [21]: 76.9%; viability, T/C [22]: 74.9%; viability, T/C [23]: 85.3%; viability, T/C [24]: 73.8%; viability, T/C [25]: 81.5%; viability, T/C [26]: 72.3%; viability, T/C [16]: 83%; viability, T/C [27]: 71%; viability, T/C [28]: 65.5%; viability, T/C [17]: 95.8%; viability, T/C [18]: 87%; viability, T/C [19]: 70.5%; viability, T/C [20]: 81.9%; viability, T/C [29]: 73.2%; viability, T/C [30]: 60.2% |
